# Details: acidic group
row,Structure (SMILES),pKa
1,O=C1CCON1,6.7
2,CS(=O)c1ccc(O)cc1 (stereo unspecified),8.28
3,C[C@@H]1CCC[C@H](C(=O)O)C1,4.88
4,COc1ccc(C(=O)S)cc1,2.79
5,NC(=O)C(CC(=O)O)c1ccccc1 (stereo unspecified),4.23
6,Cc1ccc(Sc2ccc([N+](=O)[O-])cc2C(=O)O)cc1,2.84
7,O=C(Cc1ccccc1)NO,9.26
8,C[n+]1cccc2cc(S)ccc21,4.12
9,C[n+]1ccn(CCC[n+]2ccc(/C=N/O)cc2)c1,8.05
10,C#CC#CC=C=CC(O)CCC(=O)O (stereo unspecified),4.8
11,CC=O,16.8
12,COc1cccc(OC)c1O,10.1
13,O=C(O)C[Se]c1ccc([N+](=O)[O-])cc1,3.46
14,Cc1cccc(O)c1C,10.5
15,CC(C)CCOc1ccccc1/C=C\C(=O)O,4.38
16,Sc1cc[nH+]c2ccccc12,0.77
17,Cc1cc(C)nc(NS(=O)(=O)c2ccc(N)cc2)n1,7.44
18,Oc1nc([S-])nc2nc[nH]c12,10.3
19,CC1=C(C)C(C(C)C(=O)O)CC1=O (stereo unspecified),4.4

row,Structure (SMILES),pKa
1,Nc1ccc(S(=O)(=O)Nc2ccn(-c3ccc([N+](=O)[O-])cc3)n2)cc1,6.94
2,Oc1cccn[nH+]1,-1.8
3,CC(=O)Nc1ccc(S)cc1,6.08
4,COc1cccc(S(N)(=O)=O)c1,9.39
5,COc1ccc2c(c1)CCC(=O)C2,13.3
6,C[n+]1cccc(CC(=O)c2ccccc2)c1,11
7,C[n+]1cc(O)cc2ccccc21,5.42
8,Cn1nc(/N=N/O)nc1N1CCCCC1,5.46
9,Nc1ccc(NS(=O)(=O)c2ccccc2)cc1,9.05
10,C[N+](C)(C)CCCc1ccccc1O,9.78
11,O=C(O)c1cccc(Oc2ccccc2)c1,3.95
12,CCCCCCCCCCCNCc1ccc(C)cc1,9.46
13,COC(=O)c1ccccc1-n1nc(O)cc1C,12.3
14,O=[N+]([O-])CCO,9.4
15,c1ccc([P+](c2ccccc2)(c2ccccc2)C2c3ccccc3-c3ccccc32)cc1,8.99
16,OCCCl,14.4
17,OCC(Cl)Cl,13.2
18,Brc1cn[nH]c1,12.7
19,COc1cccc[n+]1O,1.23

row,Structure (SMILES),pKa
1,O=C(O)[C@H]1CC[C@@H](O)CC1,4.84
2,COc1c(C)cc2c(c1C(=O)O)COC2,3.13
3,O=C(O)c1ccc(C2CC2)cc1,4.42
4,COc1ccc2[nH]c3c(c2c1)CCN=C3C,14.5
5,Oc1cncnc1,6.78
6,CC(Br)C(=O)O (stereo unspecified),2.97
7,CCNc1cc[nH+]c(S)n1,3.1
8,Cc1ccc(C(=O)O)cc1[N+](=O)[O-],3.62
9,O=[N+]([O-])c1ccc(B(O)O)cc1,7.15
10,COc1ccc(O)cc1Br,9.09
11,O=C1C=Cc2ccccc2/C1=N\O,7.77
12,O=C(O)CC(O)c1ccccc1 (stereo unspecified),4.4
13,CC(C)(C)P(=O)(O)C(C)(C)C,4.24
14,N#CC(C#N)=C(C#N)NC1CCCCC1,6.01
15,CC(C)(/C=C/C(=O)O)c1cc([N+](=O)[O-])ccc1O,4.26
16,O=S(=O)(Cc1ccccc1)c1ncn[nH]1,6.23
17,CC(c1cccc(Cl)c1)[N+](=O)[O-] (stereo unspecified),7.05
18,[O-]c1cccc2c1-c1cccc(O)c1-2,9.97

# Same assay, conditions: basic group
row,Structure (SMILES),pKa
1,CCCCCN(CC(C)O)CC(C)O (stereo unspecified),9
2,COCc1ccccc1CN(C)C,9.19
3,Cc1c2ccccc2c(CN2CCOCC2)c2ccccc12,6.6
4,CCOC(=O)c1ccc(CCN)cc1,9.58
5,Nc1ncnc2c1cnn2-c1ccccc1,3.89
6,COc1ccc(C(=O)S)cc1,-4.9
7,CN(C)/C=N/c1ccc(Br)cc1,8.1
8,CN(C)c1ccncn1,6.35
9,CCCCN/C(C)=N/N(C)C,10.4
10,CCN(CC)CC(=O)N(C)c1ccccc1C,8.74
11,C[C@H]1CN[C@@H](C)CN1,9.98
12,CN(C)CCCN(C)C,9.8
13,c1cnc2c(c1)ccc1ccc[nH+]c12,2.04
14,Nc1cccc2cc3ccccc3nc12,4.4
15,NCCCC#CC#CCCC(=O)[O-],9.94
16,[O-]c1ncc2ccccc2n1,10.7
17,Nc1cccc2nnccc12,2.7
18,O=C1CC[C@H]2N1CC[C@H]1c3ccccc3CCN12,4.89
19,CNC(=S)c1ccccc1,-2.5
20,CCC(O)CN(C)CC(C)O (stereo unspecified),8.9
21,CC(=O)c1ccc([O-])c(CN(C)C)c1,10
22,Cc1cc2cccc(C)c2nc1C,4.41
23,CC=O,-0.57
24,CCN(CC)CC#N,4.18

row,Structure (SMILES),pKa
1,Clc1cc(-c2ccccc2)nnc1NCC[NH+]1CCOCC1,2.54
2,[NH3+]C(c1ncc[nH]1)c1ncc[nH]1,4.07
3,Cc1cc(N)cc(C)c1C,5.15
4,CC(C)(C)NNC(C)(C)C,8.31
5,CCN(O)CC,5.62
6,COc1c(C)cccc1C(=O)N[C@@H]1C[C@H]2CC[C@@H](C1)N2Cc1ccccc1,8.92
7,NC(Cc1c[nH]c2ccccc12)C(=O)[O-] (stereo unspecified),9.44
8,NC(=O)C(c1ccccc1)c1ccccn1 (stereo unspecified),3.8
9,NCCCc1ccccn1,10.1
10,Cc1ccc(/N=N/c2ccc(N)cc2)cc1,3.04
11,Cc1cc(C)nc(NS(=O)(=O)c2ccc(N)cc2)n1,2.35
12,O=[N+](O)C1=CC=CC1,3.25
13,CC(C)NCC[NH2+]C(C)C,7.59
14,N=C(c1ccccc1)c1cccc(Cl)c1,5.69
15,CC1(C)CCCC(C)(C)N1,11.2
16,CC(=O)NCCN,9.28
17,CN(C)CCOC(C)(c1ccccc1)c1ccccc1,8.75
18,CN1C[C@@H](CO)C[C@H]2c3cccc4[nH]cc(c34)C[C@@H]21,8.3
19,Clc1ccc(-c2cnc(-c3ccccc3)o2)cc1,0.7
20,NCCC[n+]1ccc2c([N+](=O)[O-])cccc2c1,8.48
21,CCCNCC(=O)Nc1c(C)cccc1C,8.01
22,N/C(=N\O)c1ccccc1N,4.5
23,N[C@@H]1C[C@@H]2CCCC[C@H]2C[C@@H]1N,9.93
24,O=[N+]([O-])c1cc(CN2CCOCC2)c([O-])c2ccccc12,7.98

row,Structure (SMILES),pKa
1,O=C1c2ncnc([O-])c2C(=O)c2nc[nH]c21,5.99
2,Nc1nnnn1Cc1ccccc1,1.44
3,CCSC(=O)c1cccc(Br)c1,-5.53
4,c1ccc(-c2ccn[nH]2)nc1,4.46
5,NCCC(=O)NCCc1c[nH]cn1,9.21
6,Oc1ccc(NCc2ccccc2)cc1,5.17
7,COc1ccc2[nH]c3c(c2c1)CCN=C3C,9.21
8,Oc1cncnc1,1.87
9,C=CCNc1ccccc1,4.17
10,Nc1cccc2ccnnc12,3.68
11,Cc1ccc2c(c1)CC(=O)CC2,12.9
12,Cc1cccc(CN)c1,9.37
13,c1ccc(Cc2cc(-c3ccccc3)nnc2NCCN2CCOCC2)cc1,6.95
14,CN(C)[C@H]1CCCC[C@@H]1O,10.4
15,CCN(CC)CCNc1ccnc2ccccc12,8.95
16,Cc1nc(N(C)C)nc(OC(=O)N(C)C)c1C,4.53
17,CCCCc1c(C)nc(NCC)nc1[O-],11
18,c1ccc(-c2[nH]cc[nH+]2)nc1,0.6
19,CCOCCn1c(CN2CCN(CCCCn3cc(C(=O)[O-])cn3)CC2)nc2ccccc21,8
20,Oc1ccccc1CN1CCCNCCCNCCC1,9.87
21,CC1/C(=N/O)C[C@@H]2N=C(c3ccccc3)O[C@@]13[C@@H]1OC(=O)[C@H](C)[C@H]1CC[C@]23C (stereo partly specified),4.7
22,O=C([O-])CCc1c[nH]cn1,7.55

# From the pKa sets of Baltruschat and Czodrowski (2020)
